Experimental data: ChEMBL document CHEMBL6177928, “Probing structural requirements for thiazole-based mimetics of sunitinib as potent VEGFR-2 inhibitors” (RSC Med Chem, 2025)

Experiments:
HEp-2 = assay: cells; conditions: Homo sapiens, HEp-2, 48 h
Description: Antitumor activity against human HEp-2 cells assessed as inhibition of cell viability incubated for 48 hrs by MTT assay

HCT-116 = assay: cells; conditions: Homo sapiens, HCT-116, 48 h
Description: Antitumor activity against human HCT-116 cells assessed as inhibition of cell viability incubated for 48 hrs by MTT assay

HepG2 = assay: cells; conditions: Homo sapiens, HepG2, 48 h
Description: Antitumor activity against human HepG2 cells assessed as inhibition of cell viability incubated for 48 hrs by MTT assay

MCF7 = assay: cells; conditions: Homo sapiens, MCF7, 48 h
Description: Antitumor activity against human MCF7 cells assessed as inhibition of cell viability incubated for 48 hrs by MTT assay

HeLa = assay: cells; conditions: Homo sapiens, 48 h
Description: Antitumor activity against human HeLa cells assessed as inhibition of cell viability incubated for 48 hrs by MTT assay

[1] = Cytotoxicity against human WI-38 cells incubated for 48 hrs by MTT assay; type: toxicity, cell-based
WISH = assay: Cytotoxicity against human WISH cells at up to 50 uM incubated for 48 hrs by MTT assay; type: toxicity, cell-based
[2] = Cytotoxicity against human WISH cells incubated for 48 hrs by MTT assay; type: toxicity, cell-based
WI-38 = assay: Cytotoxicity against human WI-38 cells up to 50 uM incubated for 48 hrs by MTT assay; type: toxicity, cell-based; conditions: wi-38, 48 h

N#Cc1sc(Nc2ccccc2)nc1NC(=O)CNNCC(=O)c1ccc(Br)cc1
IC50 (HEp-2): 49.1 µM
IC50 (HCT-116): 34.9 µM
IC50 (HepG2): 46.1 µM
IC50 (MCF7): 35.6 µM
IC50 (HeLa): 43.4 µM

N#Cc1sc(Nc2ccccc2)nc1Nc1cnc(N)s1
IC50 at 48 h [1]: > 100 µM
Activity (WISH): Non-toxic
IC50 (HEp-2): 35.2 µM
IC50 at 48 h [2]: 82.7 µM
IC50 (HCT-116): 19.7 µM
IC50 (HepG2): 18.5 µM
Activity (WI-38): Non-toxic
IC50 (MCF7): 9.67 µM
IC50 (HeLa): 14 µM

N#Cc1sc(Nc2ccccc2)nc1NC(=O)CNNCc1ccc([N+](=O)[O-])cc1
IC50 (HEp-2): 43.6 µM
IC50 (HCT-116): 29.3 µM
IC50 (HepG2): 35.8 µM
IC50 (MCF7): 26.2 µM
IC50 (HeLa): 33.3 µM

N#Cc1sc(Nc2ccccc2)nc1NC(=O)CN1CCOCC1
IC50 (HEp-2): 45.8 µM
IC50 (HCT-116): 31.1 µM
IC50 (HepG2): 38.5 µM
IC50 (MCF7): 33.5 µM
IC50 (HeLa): 36.7 µM

N#Cc1sc(Nc2ccccc2)nc1NC(=O)CN1CCN(c2cccc(Cl)c2)CC1
IC50 (HEp-2): 87.9 µM
IC50 (HCT-116): 60.4 µM
IC50 (HepG2): 76 µM
IC50 (MCF7): 59.1 µM
IC50 (HeLa): 72.1 µM

N#Cc1sc(Nc2ccccc2)nc1N1CSCC1=O
IC50 (HEp-2): > 100 µM
IC50 (HCT-116): 86.5 µM
IC50 (HepG2): 91.5 µM
IC50 (MCF7): 72.8 µM
IC50 (HeLa): 94.3 µM

N#Cc1sc(Nc2ccccc2)nc1Nc1cnc(N)o1
IC50 at 48 h [1]: 27.5 µM
Activity (WISH): Non-toxic
IC50 (HEp-2): 39.7 µM
IC50 at 48 h [2]: 24 µM
IC50 (HCT-116): 25.8 µM
IC50 (HepG2): 20.1 µM
Activity (WI-38): Non-toxic
IC50 (MCF7): 14.8 µM
IC50 (HeLa): 16.4 µM

N#Cc1sc(Nc2ccccc2)nc1NC(=O)CN1CCN(c2ccccc2)CC1
IC50 (HEp-2): 73.5 µM
IC50 (HCT-116): 51.7 µM
IC50 (HepG2): 42.4 µM
IC50 (MCF7): 19.1 µM
IC50 (HeLa): 38.5 µM

N#Cc1sc(Nc2ccccc2)nc1NC(=O)CNNC(=O)c1ccccc1
IC50 (HEp-2): 92.2 µM
IC50 (HCT-116): 68.6 µM
IC50 (HepG2): 74.3 µM
IC50 (MCF7): 50.4 µM
IC50 (HeLa): 69.8 µM

N#Cc1sc(Nc2ccccc2)nc1NC(=O)CNNC(=O)c1ccc(Cl)cc1
IC50 (HEp-2): > 100 µM
IC50 (HCT-116): 91.9 µM
IC50 (HepG2): 89.9 µM
IC50 (MCF7): 64.8 µM
IC50 (HeLa): 86.8 µM

N#Cc1sc(Nc2ccccc2)nc1NC(=O)CNNCc1ccccc1
IC50 at 48 h [1]: 75.6 µM
Activity (WISH): Non-toxic
IC50 (HEp-2): 68.4 µM
IC50 at 48 h [2]: 47.4 µM
IC50 (HCT-116): 41.8 µM
IC50 (HepG2): 28.3 µM
Activity (WI-38): Non-toxic
IC50 (MCF7): 9.1 µM
IC50 (HeLa): 21.4 µM

N#Cc1sc(Nc2ccccc2)nc1NC(=O)CNNC(=O)c1ccc([N+](=O)[O-])cc1
IC50 (HEp-2): 80.4 µM
IC50 (HCT-116): 55.2 µM
IC50 (HepG2): 57.3 µM
IC50 (MCF7): 43.2 µM
IC50 (HeLa): 49.8 µM
